“And” between values parts separate entries of the source, which are not always exact repeats. Equal values may be shown once.
Legend:
[1] = test system: PFC (plaque forming cells); experiment: Number of PFC (plaque forming cells), method of Jerne, in CBA mice; format: in vivo, CBA male mice; details: for Abs. PFC, % (control = 100) / PFC/l mil, % (control = 100) / PFC/l mil / Abs. PFC: CBA male mice, single i.v. dose 200 μg/mouse; for Abs. PFC, % (control = 100) / PFC/l mil, % (control = 100): relative to control of the same experiment; for PFC/l mil: PFC per 10^6 spleen lymphocytes; for PFC/l mil / Abs. PFC: value ± spread; for Abs. PFC: total number of PFC; for PFC activity with respect to the number of the spleen lymphocytes, significance / increase of PFC / overall PFC activity, significance (words): Student t-test versus control
Protocol: (§1) The biological activity of the claimed compounds was tested on CBA male mice, 2-2.5 months old. The animals had been adapting to the laboratory conditions at least one week prior to each testing. The effectiveness of the N-acyl derivative of PGM was compared with the results achieved in control mice goups which were administered a physiological solution (negative control) and the original PGM (positive control). All tested substances were administered to the organism by intravenous (i.v.) route in a single dose of 200 μg/mouse and 10 mg/kg resp. The following effects of the immunopharmacological activity were surveyed: spleen weight, number of lymphocytes and number of PFC (plaque forming cells) according to the method of Jerne (in: Cell Bound Antibodies, Whister Institute Press, Philadelphia (1963), p.109). The spleen weight is expressed in mg. The number of the spleen lymphocytes is expressed as the absolute number in 1 ml, whereas the PFC are expressed by way of their total number and by their activity 10^6 spleen lymphocytes. The test groups and the corresponding control groups resp. comprised each 5-7 mice. The activity of each N-acyl derivative of PGM was examined at least three times in various periods. The statistical analysis was performed with the parametric Student t-test, applying the original computer programme Stat Works. The significance of the differences was assessed by two-tailed test at the level of acceptance equal or less than 5%. The summarized results of the effects of individual N-acyl derivatives on the parameters of immune response are listed in Table 1.

[2] = Spleen weight of CBA mice after a single i.v. dose; format: in vivo, CBA male mice; details: for Spleen weight, % (control = 100) / Spleen weight: CBA male mice, single i.v. dose 200 μg/mouse (10 mg/kg); for Spleen weight, % (control = 100): relative to control of the same experiment; for Spleen weight: value ± spread; for change in the spleen weight: differences to control not significant, tendency of improved activity; for increase in the spleen weight in comparison to the control values: statistically significant, CBA mice, i.v. 200 μg/mouse
Protocol: as §1

immune response = experiment: Overall immunopharmacological activity (cellular and humoral immunity) in CBA mice; format: in vivo, CBA male mice; details: for effect on the cellular immune response / involvement in the humoral immunity: conclusion from Table 1
Protocol: as §1

spleen lymphocytes = experiment: Number of spleen lymphocytes of CBA mice after a single i.v. dose; format: in vivo, CBA male mice; parameters: No spleen cells: unit not given beside the values; details: for No spleen cells, % (control = 100) / No spleen cells: CBA male mice, single i.v. dose 200 μg/mouse; for No spleen cells, % (control = 100): relative to control of the same experiment; for increase of the number of the spleen lymphocytes / reduction of the number of spleen lymphocytes in comparison to the control values: absolute number in 1 mL; for increase of the number of the spleen lymphocytes / effect upon the number of spleen lymphocytes / reduction of the number of spleen lymphocytes in comparison to the control values: CBA mice, i.v. 200 μg/mouse; for No spleen cells: absolute number of spleen lymphocytes in 1 ml, value ± spread
Protocol: as §1

[3] = Z. Immun.-Forsch. 155 (1979), 312-328; cited from earlier work
[4] = cited from earlier work
[5] = Eur. J. Cancer Oncol. 19 (1983); Cancer Immunol. Immunother. 15 (1983), 18 (1984); cited from earlier work

Compound | Abs. PFC, % (control = 100) [1] | PFC/l mil, % (control = 100) [1] | PFC/l mil [1] | Abs. PFC [1] | Spleen weight, % (control = 100) [2] | Spleen weight [2] | No spleen cells, % (control = 100) (spleen lymphocytes) | No spleen cells (spleen lymphocytes) | PFC activity with respect to the number of the spleen lymphocytes, significance [1] | change in the spleen weight [2] | reduction of the number of spleen lymphocytes in comparison to the control values (spleen lymphocytes) | also measured
Na-salt of N-capriloyl-PGM [Capriloyl PGM] | 159% | 126% | 154.2 ± 111.12 | 88.5 ± 75.95 | 100% | 120.4 ± 12.36 mg | 119% | 46.1 ± 11.70 |  |  |  | effect on the cellular immune response (immune response): significant effect; increase of the number of the spleen lymphocytes (spleen lymphocytes): 19%
Na-salt of N-benzoyl-PGM [Benzoyl PGM] | 138% | 142% | 282.1 | 95.7 ± 28.45 | 114% | 113.4 ± 22.28 mg | 100% | 34.1 ± 9.56 | clearly expressed enhancing tendency | relative increase |  | increase of PFC / overall PFC activity, significance (words) ([1]; listed as N-benzoyl): statistically significant difference; increase of PFC / overall PFC activity, significance (words) ([1]; listed as benzoyl): significant effect; involvement in the humoral immunity (immune response): more significantly involved; effect upon the number of spleen lymphocytes (spleen lymphocytes): no effect
sodium salt of N-stearoyl-PGM [Stearoyl PGM] | 126% | 118% | 219.2 ± 67.11 | 93.4 ± 37.55 | 113% | 123.6 ± 18.63 mg | 100% | 37.8 ± 6.90 |  |  |  | increase in the spleen weight in comparison to the control values [2]: 13%; effect upon the number of spleen lymphocytes (spleen lymphocytes): no effect
CC(=O)NC1C(OC2C(CO)OC(O)C(NC(C)=O)C2OC(C)C(=O)NC(C)C(=O)NC(CCC(=O)NC(CCCC(N)C(=O)O)C(=O)NC(C)C(=O)NC(C)C(=O)O)C(N)=O)OC(CO)C(O)C1O (centres unmarked) [PGM, peptidoglycan monomer] | 159% and 139% and 119% and 102% and 100% and 105% and 112% and 135% | 128% and 116% and 111% and 96% and 102% and 118% and 150% | 156.1 ± 102.78 and 190.4 ± 79.53 and 117.1 ± 48.37 and 214.4 ± 95.61 and 163.6 ± 72.39 and 141.4 ± 40.57 and 219.1 ± 96.98 and 206.9 |  |  |  | 122% and 87% and 113% and 94% and 93% and 102% and 90% |  |  |  |  | Spleen weight, % (control = 100) ([2]; 10 mg/kg): 115% and 107% and 104% and 103% and 106% and 102%; immunomodulating activity [3]: immunomodulating; solubility in organic solvents ([4]; organic solvents): insoluble; solubility in water ([4]; water): well water-soluble; antimetastatic activity [5]: antimetastatic activity
Na-salt of N-pivaloyl-PGM [Pivaloyl PGM] | 110% | 118% | 163.8 ± 52.95 | 76.4 ± 24.94 | 107% | 125.5 ± 19.44 mg | 94% | 42.9 ± 9.82 |  | relative increase | 4-6% | 
NA-salt of N-acetyl-PGM [Acetyl PGM] | 111% | 119% | 202.7 ± 91.97 | 85.8 ± 33.17 | 106% | 112.3 ± 12.08 mg | 96% | 41.9 ± 5.66 | clearly expressed enhancing tendency |  | 4-6% | 
sodium salt of N-oleoyl-PGM [Oleoyl PGM] | 113% | 109% | 210.8 ± 88.40 | 97.1 ± 41.86 | 121% | 131.7 ± 14.40 mg | 103% | 42.3 ± 7.96 |  |  |  | increase in the spleen weight in comparison to the control values [2]: 21%; increase of the number of the spleen lymphocytes (spleen lymphocytes): 3-9%
Na-salt of N-lauroyl-PGM [Lauroyl PGM] | 162% | 155% | 254.2 | 125.4 ± 68.45 | 112% | 135.5 ± 22.60 mg | 79% | 45.2 ± 8.50 | statistically significant difference | relative increase | 20% | increase of PFC / overall PFC activity, significance (words) ([1]; listed as N-lauroyl): statistically significant difference; increase of PFC / overall PFC activity, significance (words) ([1]; listed as lauroyl): significant effect; activity in comparison with the original PGM (immune response; administered in the same concentration): superior activity; effect on the cellular immune response (immune response): significant effect; involvement in the humoral immunity (immune response): more significantly involved

From patent US5153173A, “N-acyl derivatives of the peptidoglycan monomer, pharmaceutically acceptable salts thereof, their preparation and use as immunomodulators and immunoadjuvants” (Pliva Farmaceutska, priority 1990, dated 1992)
